From publication PMC6757289, “Design and Characterization of SGK3-PROTAC1, an Isoform Specific SGK3 Kinase PROTAC Degrader” (ACS Chemical Biology, 2019)

Columns and labels:
Type in all cases: cell-based
[1] = test system: mTORC1-mediated phosphorylation of S6K1 at Thr389; test: mTORC1 signaling in CAMA-1 cells treated with PI3K or Akt inhibitor, immunoblot; conditions: CAMA-1, 5 days 1 μM GDC0941 or AZD5363; 0.3 μM
Description: (§1) We therefore aimed to investigate the effect that degradation of SGK3 would have on this resistance pathway and whether SGK3-PROTAC1 treatment could reverse inhibitor resistance. To investigate the effect of SGK3-PROTAC1 under these conditions, we treated CAMA-1 (Figure 5A,C) or ZR-75-1 (Figure 5B,D) for 5 days with either a class 1A PI3K inhibitor (GDC0941 1 μM;[38]Figure 5A,B) or an Akt inhibitor (AZD5363, 1 μM;[39]Figure 5C,D). These cells were treated with SGK3-PROTAC1 or cisSGK3-PROTAC1 (0.3 μM) for either 5 days in combination with the inhibitors or 8 h before lysis.
(§2) Figure 5 SGK3-PROTAC1-mediated degradation of SGK3 inhibits Akt-independent activation of mTORC1 in cancer cell lines treated with Akt or PI3K inhibitors. CAMA-1 (A, C) or ZR-75-1 (B, D) were treated for 5 days with 1 μM GDC0941 (A, B) or 1 μM AZD5363 (C, D). […]
(§3) All cell treatments were carried out as described in figure legends, to a final DMSO concentration of 0.1% (v/v). Lysates were quantified. […] Lysate concentration was quantified by Bradford Assay, and 10 μg of lysate was loaded in the LDS sample buffer for SDS-PAGE electrophoresis on Novex 4–12% Bis–Tris gels. […] The signal was produced with near-infrared secondary antibodies and detected using a Licor Biosciences Odyssey System, and the signal was quantified in Image Studio Lite.

SGK3 = target: T1, SGK3 (Homo sapiens, UniProt Q96BR1); test: SGK3 degradation in CAMA-1 cells, immunoblot; conditions: for SGK3 expression: CAMA-1, 5 days 1 μM GDC0941 or AZD5363, 0.3 μM for 5 days or 8 h
T1 sequence (Q96BR1 1-496): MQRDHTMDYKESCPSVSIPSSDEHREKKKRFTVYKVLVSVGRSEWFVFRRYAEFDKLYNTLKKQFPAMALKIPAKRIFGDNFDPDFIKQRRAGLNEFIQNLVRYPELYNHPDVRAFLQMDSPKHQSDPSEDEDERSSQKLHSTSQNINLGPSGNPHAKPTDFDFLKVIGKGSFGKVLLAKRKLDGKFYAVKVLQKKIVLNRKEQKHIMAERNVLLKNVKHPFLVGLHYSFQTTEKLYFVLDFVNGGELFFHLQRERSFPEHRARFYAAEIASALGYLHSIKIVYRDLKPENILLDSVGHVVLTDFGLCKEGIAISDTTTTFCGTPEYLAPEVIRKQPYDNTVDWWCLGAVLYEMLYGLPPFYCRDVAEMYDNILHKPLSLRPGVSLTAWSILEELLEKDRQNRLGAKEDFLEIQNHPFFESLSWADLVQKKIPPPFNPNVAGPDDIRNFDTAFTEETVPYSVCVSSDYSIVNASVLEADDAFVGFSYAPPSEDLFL
Description: Figure 3 Characterization of cellular activities of SGK3-PROTAC1 and cisSGK3-PROTAC1. (A) HEK293 cells were first treated for 8 h with 0.03–3 μM SGK3-PROTAC1 and cisSGK3-PROTAC1. One hour before lysis, cells were treated with 3 μM AZD5363. Lysates were subjected to immunoblot analysis with the indicated antibodies. […] Lysates were subjected to immunoblot analysis with the indicated antibodies. (C) HEK293 cells were treated for up to 48 h with SGK3-PROTAC1 (0.3 μM), and lysates were analyzed by immunoblot analysis using the indicated antibodies. (D) HEK293 cells were treated for 24 h with SGK3-PROTAC1. Cells were washed three times with DMEM to wash out the compound, and recovery of SGK3 expression protein was analyzed by immunoblot analysis. (E–G) As in A except that CAMA-1 (E), ZR-75-1 (F), and JIMT-1 (G) cells were employed rather than HEK293 cells.
Figure 5 SGK3-PROTAC1-mediated degradation of SGK3 inhibits Akt-independent activation of mTORC1 in cancer cell lines treated with Akt or PI3K inhibitors. CAMA-1 (A, C) or ZR-75-1 (B, D) were treated for 5 days with 1 μM GDC0941 (A, B) or 1 μM AZD5363 (C, D). Cells were treated with the compounds indicated for either 5 days or 8 h before lysis; cells were treated with the compounds indicated. Cell lysates were subject to immunoblot analysis with the indicated antibodies.
All cell treatments were carried out as described in figure legends, to a final DMSO concentration of 0.1% (v/v). Lysates were quantified. Immunoblotting was performed using standard procedures, described in brief below. Lysate concentration was quantified by Bradford Assay, and 10 μg of lysate was loaded in the LDS sample buffer for SDS-PAGE electrophoresis on Novex 4–12% Bis–Tris gels. Proteins were electrophoretically transferred onto nitrocellulose membranes (Amersham Protran 0.45 μm NC; GE Healthcare) at 80 V for 80 min on ice in transfer buffer. Transferred membranes were blocked with 5% (w/v) nonfat dry milk dissolved in TBS-T [20 mM Tris/HCl, pH 7.5, 150 mM NaCl, and 0.1% (v/v) Tween 20] at RT for 30 min, before incubation with the primary antibody overnight at 4 °C. The signal was produced with near-infrared secondary antibodies and detected using a Licor Biosciences Odyssey System, and the signal was quantified in Image Studio Lite.

[2] = test system: mTORC1-mediated phosphorylation of S6K1 at Thr389; test: mTORC1 signaling in ZR-75-1 cells treated with PI3K or Akt inhibitor, immunoblot; conditions: ZR-75-1, 5 days 1 μM GDC0941 or AZD5363; 0.3 μM
Description: as §1, §2, §3

Question: How did the “phosphorylation of S6K1 at Thr389” value [1] turn out when Cc1ccc(F)c(S(=O)(=O)Nc2ccc(-c3nc(OC[C@H]4CN(CCCCCCOCCOCCOCC(=O)N[C@H](C(=O)N5C[C@H](O)C[C@H]5C(=O)NCc5ccc(-c6scnc6C)cc5)C(C)(C)C)CCO4)c4cn[nH]c4n3)cc2)c1 [SGK3-PROTAC1] was run?
Answer: Its value is “suppressed”.

Question: And the “concentration inducing degradation of SGK3” value (SGK3; CAMA-1, 8 h)?
Answer: Its value is > 0.1 µM.

Question: And the SGK3 expression (SGK3)?
Answer: Its SGK3 expression is “substantially reduced”.

Question: What about the “phosphorylation of S6K1 at Thr389” value [2] of the same molecule?
Answer: The value was “suppressed”.

Question: Cc1ccc(F)c(S(=O)(=O)Nc2ccc(-c3nc(OC[C@H]4CN(CCCCCCOCCOCCOCC(=O)N[C@H](C(=O)N5C[C@@H](O)C[C@H]5C(=O)NCc5ccc(-c6scnc6C)cc5)C(C)(C)C)CCO4)c4cn[nH]c4n3)cc2)c1 [cisSGK3-PROTAC1] was tested. Which “phosphorylation of S6K1 at Thr389” value [1] did it give?
Answer: Its value is “no significant effect”.

Question: What about the “degradation of SGK3” value (SGK3; CAMA-1, 8 h, 0.03–3 μM) of the same molecule?
Answer: The value was “no impact”.

Question: And the SGK3 expression (SGK3)?
Answer: Its SGK3 expression is “no significant effect”.

Question: And the “phosphorylation of S6K1 at Thr389” value [2]?
Answer: The value was “no significant effect”.
